Biological target: human APJ receptor (Homo sapiens (Human), UniProt P35414)
Assay: [35S]GTPγS binding assay on membranes from CHO cells stably expressing human APJ receptor
Assay type: biochemical
Details: membranes of CHO cells stably expressing human APJ receptor, read-out: Activity hAPJ SPA EC50 IP
Procedure, shortened: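 Agonist EC50 values come from non-linear regression of mean data from several independent runs. Membranes of CHO cells stably expressing human APJ were incubated 90 min at room temperature with [35S]GTPγS in buffer with optimized GDP, MgCl2 and NaCl, then read on a microplate imager.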

Sequence of human APJ receptor (P35414 whole entry): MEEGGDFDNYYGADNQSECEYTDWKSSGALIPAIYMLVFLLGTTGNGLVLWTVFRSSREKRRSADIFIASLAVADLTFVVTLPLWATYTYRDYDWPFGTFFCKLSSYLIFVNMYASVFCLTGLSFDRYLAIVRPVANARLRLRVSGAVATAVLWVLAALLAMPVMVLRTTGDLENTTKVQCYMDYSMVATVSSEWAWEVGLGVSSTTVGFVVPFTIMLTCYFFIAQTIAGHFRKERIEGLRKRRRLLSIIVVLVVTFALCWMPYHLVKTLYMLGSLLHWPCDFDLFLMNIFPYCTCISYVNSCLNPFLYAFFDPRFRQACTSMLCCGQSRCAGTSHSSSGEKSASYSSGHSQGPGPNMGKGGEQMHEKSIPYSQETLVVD

Compound | EC50
COc1cccc(-c2nnc(NS(=O)(=O)[C@@H](C)[C@H](OC)c3ncc(Cl)cn3)n2C[C@@H]2CCCOC2)n1 (racemic) [Example 312.0, (1R,2S)-1-(5-chloropyrimidin-2-yl)-1-methoxy-N-(5-(6-methoxypyridin-2-yl)-4-(((R)-tetrahydro-2H-pyran-3-yl)methyl)-4H-1,2,4-triazol-3-yl)propane-2-sulfonamide or (1R,2S)-1-(5-chloropyrimidin-2-yl)-1-methoxy-N-(5-(6-methoxypyridin-2-yl)-4-(((S)-tetrahydro-2H-pyran-3-yl)methyl)-4H-1,2,4-triazol-3-yl)propane-2-sulfonamide] | 13 nM
COC[C@@H](C)n1c(NS(=O)(=O)[C@@H](C)[C@H](C)c2ncc(Cl)cn2)nnc1-c1cccnc1 (single isomer, unassigned) [Example 53.0] | 30 nM
COCC(COC)n1c(NS(=O)(=O)[C@@H](C)[C@@H](OC(C)C)c2ncc(OC)cn2)nnc1-c1cccc(OC)n1 [Example 172.0, (1S,2S)-N-(4-(1,3-dimethoxy-2-propanyl)-5-(6-methoxy-2-pyridinyl)-4H-1,2,4-triazol-3-yl)-1-(5-methoxy-2-pyrimidinyl)-1-(2-propanyloxy)-2-propanesulfonamide] | 1.4 nM
COc1cccc(-c2nnc(NS(=O)(=O)[C@@H](C)[C@H](OC)c3ncc(Cl)cn3)n2[C@@H]2CCC23CCC3)n1 (single isomer, unassigned) [Example 92.0] | 1.2 nM
COc1cccc(-c2nnc(NS(=O)(=O)[C@@H](C)[C@H](OC)c3ncc(Cl)cn3)n2C[C@@H]2COCCO2)n1 (racemic) [Example 303.0, (1R,2S)-N-(4-(((R)-1,4-dioxan-2-yl)methyl)-5-(6-methoxypyridin-2-yl)-4H-1,2,4-triazol-3-yl)-1-(5-chloropyrimidin-2-yl)-1-methoxypropane-2-sulfonamide or (1R,2S)-N-(4-(((S)-1,4-dioxan-2-yl)methyl)-5-(6-methoxypyridin-2-yl)-4H-1,2,4-triazol-3-yl)-1-(5-chloropyrimidin-2-yl)-1-methoxypropane-2-sulfonamide] | 27 nM
COc1cccc(-c2nnc(NS(=O)(=O)[C@@H](C)[C@H](OC)c3ncc(Cl)cn3)n2[C@@H](C)c2ncnn2C)n1 (single isomer, unassigned) [Example 249.0, (1R,2S)-1-(5-chloro-2-pyrimidinyl)-1-methoxy-N-(5-(6-methoxy-2-pyridinyl)-4-((1R)-1-(1-methyl-1H-1,2,4-triazol-5-yl)ethyl)-4H-1,2,4-triazol-3-yl)-2-propanesulfonamide or (1R,2S)-1-(5-chloro-2-pyrimidinyl)-1-methoxy-N-(5-(6-methoxy-2-pyridinyl)-4-((1S)-1-(1-methyl-1H-1,2,4-triazol-5-yl)ethyl)-4H-1,2,4-triazol-3-yl)-2-propanesulfonamide] | 3 nM
CCc1noc(C)c1Cn1c(NS(=O)(=O)[C@@H](C)[C@H](C)c2ncc(Cl)cn2)nnc1-c1cccc(OC)n1 [Example 193.0, (2S,3R)-3-(5-chloro-2-pyrimidinyl)-N-(4-((3-ethyl-5-methyl-1,2-oxazol-4-yl)methyl)-5-(6-methoxy-2-pyridinyl)-4H-1,2,4-triazol-3-yl)-2-butanesulfonamide] | 430 nM
COc1cccc(-c2nnc(NS(=O)(=O)[C@@H](C)[C@H](OC)c3ncc(Cl)cn3)n2[C@@H](C)c2ncn(C)n2)n1 (single isomer, unassigned) [Example 236.0, (1R,2S)-1-(5-chloro-2-pyrimidinyl)-1-methoxy-N-(5-(6-methoxy-2-pyridinyl)-4-((1R)-1-(1-methyl-1H-1,2,4-triazol-3-yl)ethyl)-4H-1,2,4-triazol-3-yl)-2-propanesulfonamide or (1R,2S)-1-(5-chloro-2-pyrimidinyl)-1-methoxy-N-(5-(6-methoxy-2-pyridinyl)-4-((1S)-1-(1-methyl-1H-1,2,4-triazol-3-yl)ethyl)-4H-1,2,4-triazol-3-yl)-2-propanesulfonamide] | 7.2 nM
COC[C@@H](C)n1c(NS(=O)(=O)[C@@H](C)[C@@H](OC(C)C)c2ncc(Cl)cn2)nnc1-c1cccc(OC)n1 [Example 178.0, (1S,2S)-1-(5-chloro-2-pyrimidinyl)-N-(4-((2R)-1-methoxy-2-propanyl)-5-(6-methoxy-2-pyridinyl)-4H-1,2,4-triazol-3-yl)-1-(2-propanyloxy)-2-propanesulfonamide] | 0.32 nM
CC[C@H]([C@@H]1CCCCO1)n1c(NS(=O)(=O)[C@@H](C)[C@H](OC)c2ncc(C)cn2)nnc1-c1cccc(OC)n1 (single isomer, unassigned) [Example 329.0] | 1.4 nM
COCC(COC)n1c(NS(=O)(=O)[C@@H](C)[C@H](C)c2ncc(OC)cn2)nnc1-c1cccc(OC)n1 [Example 99.0] | 4.2 nM
COc1cccc(-c2nnc(NS(=O)(=O)[C@@H](C)[C@H](OC)c3ncc(Cl)cn3)n2CCOC(F)F)n1 [Example 43.0] | 3.7 nM
CC[C@H]([C@@H]1CCCCO1)n1c(NS(=O)(=O)[C@@H](C)[C@H](OC)c2ncc(C)cn2)nnc1-c1cccc(OC)n1 (single isomer, unassigned) [Example 331.0] | 0.6 nM
COc1cccc(-c2nnc(NS(=O)(=O)[C@@H](C)[C@H](OC)c3ncc(Cl)cn3)n2[C@@H](C)c2noc(C)n2)n1 (single isomer, unassigned) [Example 244.0, (1R,2S)-1-(5-chloro-2-pyrimidinyl)-1-methoxy-N-(5-(6-methoxy-2-pyridinyl)-4-((1R)-1-(5-methyl-1,2,4-oxadiazol-3-yl)ethyl)-4H-1,2,4-triazol-3-yl)-2-propanesulfonamide or (1R,2S)-1-(5-chloro-2-pyrimidinyl)-1-methoxy-N-(5-(6-methoxy-2-pyridinyl)-4-((1S)-1-(5-methyl-1,2,4-oxadiazol-3-yl)ethyl)-4H-1,2,4-triazol-3-yl)-2-propanesulfonamide] | 8.2 nM
COc1cnc([C@@H](OC)[C@H](C)S(=O)(=O)Nc2nnc(-c3cccc(OC)n3)n2[C@H]2CC23CC3)cn1 (single isomer, unassigned) [Example 160.0, (1R,2S)-1-methoxy-1-(5-methoxypyrazin-2-yl)-N-(5-(6-methoxypyridin-2-yl)-4-((S)-spiro[2.2]pentan-1-yl)-4H-1,2,4-triazol-3-yl)propane-2-sulfonamide or (1R,2S)-1-methoxy-1-(5-methoxypyrazin-2-yl)-N-(5-(6-methoxypyridin-2-yl)-4-((R)-spiro[2.2]pentan-1-yl)-4H-1,2,4-triazol-3-y)propane-2-sulfonamide] | 90 nM
COc1cccc(-c2nnc(NS(=O)(=O)[C@@H](C)[C@@H](OC(C)C)c3ncc(C)cn3)n2[C@H](c2conc2C)C2CC2)n1 (mixture of isomers) [Example 226.0, (1S,2S)-N-(4-((R)-cyclopropyl(3-methyl-1,2-oxazol-4-yl)methyl)-5-(6-methoxy-2-pyridinyl)-4H-1,2,4-triazol-3-yl)-1-(5-methyl-2-pyrimidinyl)-1-(2-propanyloxy)-2-propanesulfonamide and (1S,2S)-N-(4-((S)-cyclopropyl(3-methyl-1,2-oxazol-4-yl)methyl)-5-(6-methoxy-2-pyridinyl)-4H-1,2,4-triazol-3-yl)-1-(5-methyl-2-pyrimidinyl)-1-(2-propanyloxy)-2-propanesulfonamide] | 0.88 nM
COc1cnc([C@@H](C)[C@H](C)S(=O)(=O)Nc2nnc(-c3cccc(OC)n3)n2C2CC2)cn1 [Example 118.0] | 31 nM
